The text below walks through data of ChEMBL document CHEMBL1201862, “PubChem BioAssay data set” (2004).

Holding throughout (experiment): inhibition of tumour cell growth, NCI panel, 48 h
The test system of assay [1] is CAKI-1.
Assay [2] deals with COLO 205.
The subject of assay [3] is HOP-62.
Assay [4] concerns HOP-92.
In assay [5] the test system is IGROV-1.
Assay [6] concerns KM12.
The test system of assay [7] is LOX IMVI.
Assay [8] deals with Malme-3M.
In assay [9] the test system is NCI/ADR-RES.
The subject of assay [10] is OVCAR-5.
Assay [11] deals with OVCAR-8.
The subject of assay [12] is SF-268.
For assay [13], the system named is SK-MEL-28.
Assay [14] has as its system SK-MEL-2.
Assay [15] deals with SK-MEL-5.
Assay [16] concerns SK-OV-3.
For assay [17], the system named is SN12C.
Assay [18] relates to SR.
The test system of assay [19] is UACC-62.
Assay [20] concerns UO-31.

The structures appear in SMILES notation.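 Step 1: Grow cells in 96-well plates. Step 2: Expose to compound for 48 hours at 5 concentrations. Step 3: Interpolate endpoints linearly; if unreached, use highest concentration. At the GI50, growth is halved.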 Active and inactive are the calls of the source. Rule as the data show it: active = GI50 up to about 1.1 µM and inactive = higher.

Consider `COc1ccccc1NC(=S)N/N=C1\C(=O)Nc2ccccc21`, for which the GI50 in assay [1], in assay [2], in [3], in [4], in [5] and in assay [6] was > 100 µM (inactive) throughout. Further, the GI50 is > 100 µM (inactive) in assay [7]; > 100 µM (inactive) in [8]; > 100 µM (inactive) in assay [9]; > 100 µM (inactive) in [10]; > 100 µM (inactive) in [11]; 0.583 µM (active) in assay [12]. Also, the GI50 is 3.29 µM (inactive) in assay [13]; > 100 µM (inactive) in assay [14]; 73.5 µM (inactive) in assay [15]; > 100 µM (inactive) in assay [16]; > 100 µM (inactive) in [17]; > 100 µM (inactive) in assay [18]. Further, the GI50 in assay [19] and in [20] was > 100 µM (inactive) each time.
